From US20260207450A1, “ANTI-DANDRUFF COMPOSITIONS” (Firmenich SA, priority 2022, published 2026)
Read-outs that look alike come from different tables or passages of the source.

Legend:
M. restricta = experiment: Disc-diffusion assay, additional perfumery materials in DMSO, M. restricta, 4 days; format: cell-based, Malassezia restricta; conditions: for zone of inhibition: in DMSO (1% or 2%, not specified per value)
Experimental: (§1) Anti-Malassezia effect of additional perfumery materials in DMSO was determined using disc-diffusion assay as described previously. Test samples solutions were prepared in DMSO to final concentrations of 0.5%, 1% or 2%. Discs (Whatman, 6 mm in diameter) were placed on inoculated agar plates. Aliquots (20 μL) of each sample solution was added to each disc. Agar plates were incubated at 30° C. for 4 days. After incubation, diameters of the clear inhibition zones around the discs were recorded
as §1, with “above.” for “previously.”, “recorded.” for “recorded”
Anti-Malassezia effect of additional perfumery materials in solvent in DMSO was determined using disc-diffusion assay, as described previously. Test samples solutions are prepared in DMSO to final concentrations of 0.5%. Discs (Whatman, 6 mm in diameter) were placed on inoculated agar plates. Aliquots (20 μL) of each sample solution was added to each disc. Agar plates were incubated at 30° C. for 4 days. After incubation, diameters of the clear inhibition zones around the discs were measured.

[1] = system: M. restricta ATCC MYA-4611; experiment: Disc-diffusion assay, perfumery materials in DMSO, M. restricta; format: cell-based, Malassezia restricta; conditions: Malassezia restricta, 144 h
Experimental: Anti-Malassezia effect of perfumery materials in solvent in DMSO was determined using disc-diffusion assay, based on the method of J Mycol Infect 2018: 23: 91-98. In brief, working cultures of Malassezia strains were prepared from −80 C stock culture on mDixon agar plate (for M. furfur DSM 6170) or mLN agar plate (for M. restricta ATCC MYA-4611 and M. globosa ATCC MYA-4612), and cells were suspended in 0.9% saline, and spread onto mDixon or mLN agar surface to prepare lawn plate. Test samples solutions are prepared in DMSO to final concentrations of 0.2%, 1% or 2%. Discs (Whatman, 6 mm in diameter) were placed on inoculated agar plates with each Malassezia strains respectively, including M. furfur DSM 6170, M. restricta ATCC MYA-4611, and M. globosa ATCC MYA-4612. Aliquots (20 μL) of each sample solution was added to each disc. Agar plates were incubated at 30° C. for 3 days for M. furfur DSM 6170, and 6 days for M. restricta ATCC MYA-4611, and M. globosa ATCC MYA-4612. After incubation, diameters of the clear inhibition zones around the discs were measured. Inhibition zone greater than 6 mm are regarded as having anti-Malassezia effect.

[2] = Malassezia restricta, 96 h, Table 20, 0.5% in DMSO, 4 days, read-out: Inhibition zone diameter (mm) on M. restricta
[3] = Malassezia restricta, 96 h, Table 19, M. restricta, 4 days, read-out: Inhibition zone diameter (mm)

Compound	zone of inhibition at 0.5 % (M. restricta; [2]) [mm]	other results
Cc1cc2c(cc1C=O)C(C)(C)[C@H](C)[C@@H](C)C2(C)C (racemic) [(6RS,7RS)-3,5,5,6,7,8,8-heptamethyl-5,6,7,8-tetrahydro-2-naphthalenecarbaldehyde]	7.8	
C=CC(C)CCCC(C)(C)O (racemic) [(+/−)-2,6-dimethyl-7-octen-2-ol]	7.5	
CCC(=CCC1CC=C(C)C1(C)C)CO (racemic) [(+/−)-2-ethyl-4-(2,2,3-trimethyl-3-cyclopenten-1-yl)-2-buten-1-ol]	7	
CCCCCCCCC(C)C=O (racemic) [(+/−)-2-methyldecanal]	7.1	
CCCCCCCCCC(C)C=O (racemic) [(+/−)-2-methylundecanal]	7.1	
CC(C)=CCCC(C)CC=O (racemic) [(+/−)-3,7-dimethyl-6-octenal]	7.3	
CC(C=O)Cc1ccc2c(c1)OCO2 (racemic) [(+/−)-3-(1,3-benzodioxol-5-yl)-2-methylpropanal]	19	
CC(CC=O)CCc1ccccc1 (racemic) [(+/−)-3-methyl-5-phenylpentanal]	7.6	
Cc1ccc2c(c1)CC(C)(CO)C2 (racemic) [(+/−)-(2,5-dimethyl-2,3-dihydro-1H-inden-2-yl)methanol]	7	
CC1=CCC(C/C=C(\C)CO)C1(C)C (racemic) [(+/−)-(2E)-2-methyl-4-(2,2,3-trimethyl-3-cyclopenten-1-yl)-2-buten-1-ol]	7.6	
C/C(=C\c1ccc(C)cc1)CC(C)C=O (racemic) [(+/−)-(4E)-2,4-dimethyl-5-(4-methylphenyl)-4-pentenal]		zone of inhibition at 0.5 % (M. restricta; Malassezia restricta, 96 h, read-out: Inhibition zone diameter (mm)): 7.8 mm
CC(C)=CCCC(C)CCOCC=O (racemic) [(+/−)-[(3,7-dimethyl-6-octen-1-yl)oxy]acetaldehyde]	9.7	
C=C1CCCC(C)(C)C1C(=O)OC (racemic) [(+/−)-methyl 2,2-dimethyl-6-methylidenecyclohexanecarboxylate]	7.5	
c1ccc(Oc2ccccc2)cc1 [1,1′-oxydibenzene]		zone of inhibition at 0.5 % (M. restricta; Malassezia restricta, 96 h, read-out: Inhibition zone diameter (mm) on M. restricta): 7.4 mm
O=C1CCCCCCCCCCCC(=O)OCCO1 [1,4-dioxacycloheptadecane-5, 17-dione]	7.3	
CC1=C(C=O)C(C)(C)CC=C1 [2,6,6-trimethyl-1,3-cyclohexadiene-1-carbaldehyde]	7.2	
CC(C)CCCC(C)(C)O [2,6-dimethyl-2-heptanol]	7.7	
CC(=O)OCCC1=CCC2CC1C2(C)C (stereo not drawn) [2-(6,6-dimethyl-bicyclo[3.1.1]hept-2-en-2-yl)ethyl acetate]	7.5	
CC(C=O)c1ccccc1 (stereo not drawn) [2-phenylpropanal]	7	
CC(=CC=O)CCC(C)=C(C)C [3,6,7-trimethyl-2,6-octadienal]	8.7	
CC1(C)CC=C(CCC=O)CC1 [3-(4,4-dimethyl-1-cyclohexen-1-yl)propanal]	8.9	

Compound	zone of inhibition at 0.5 % (M. restricta; [2]) [mm]	other results
CC1(C)C2CC=C(CCC=O)C1C2 (stereo not drawn) [3-(6,6-dimethyl-bicyclo[3.1.1]hept-2-en-2-yl)propanal]	7.3	
CC(C)(O)Cc1ccc(CCC=O)cc1 [3-[4-(2-hydroxy-2-methylpropyl)phenyl]propanal]		zone of inhibition at 1 % (M. restricta; Malassezia restricta, 96 h, Table 18, 1% in DMSO, M. restricta, 4 days, read-out: Inhibition zone diameter (mm)): 8.9 mm; zone of inhibition at 2 % (M. restricta; Malassezia restricta, 96 h, Table 18, 2% in DMSO, M. restricta, 4 days, read-out: Inhibition zone diameter (mm)): 16 mm
COC(C)(C)C1CC=C(C)CC1 (stereo not drawn) [4-(2-methoxy-2-propanyl)-1-methylcyclohexene]	7	
COc1cc(C=O)ccc1OC(=O)C(C)C [4-formyl-2-methoxyphenyl 2-methylpropanoate]	10.2	
COC(OC)C(C)(C)CC=C(C)C [6,6-dimethoxy-2,5,5-trimethyl-2-hexene]	7.2	
Cc1ccc2c(c1)OCC(=O)CO2 [7-methyl-2H-1,5-benzodioxepin-3(4H)-one]	7	
CCCCCCCC=C/C=C/C=O [(2E)-2,4-dodecadienal]		zone of inhibition (M. restricta; [3]): 21.5 mm
CCCCCCC=C/C=C/C=O [(2E)-2,4-undecadienal]		zone of inhibition (M. restricta; [3]): 26.6 mm
CCCCCC/C(C=O)=C\c1ccccc1 [(2E)-2-benzylideneoctanal]	7.2	
C/C(C=O)=C\c1ccccc1 [(2E)-2-methyl-3-phenyl-2-propenal]	8.1	
CC/C=C/C=C/C=O [(2E,4E)-2,4-heptadienal]		zone of inhibition (M. restricta; [3]): > 40 mm
Cc1ccc(CC=O)cc1 [(4-methylphenyl)acetaldehyde]	10.6	
CCCCC/C=C/CCC=O [(4E)-4-decenal]	7.2	
CCCCCCC/C=C\CCC=O [(4Z)-4-dodecenal]		zone of inhibition (M. restricta; [3]): 7.4 mm
CC(C)=CCC[C@@H](C)CC=O [(+)-(R)-3,7-dimethyl-6-octenal]	7.1	
CCCCCC/C=C/CO [(E)-2-nonen-1-ol]		zone of inhibition (M. restricta; [3]): 7.5 mm
CCCCCC/C=C/C=O [(E)-2-nonenal]	38	
CCCCC/C=C/C=O [(E)-2-octenal]	24.8	
CCCCCCCCCC/C=C/C=O [(E)-2-tridecenal]	15.2	
CCCCCCCC/C=C/C=O [(E)-2-undecenal]		zone of inhibition (M. restricta; [3]): > 40 mm
CCCCC/C=C/C=C/C=O [(E,E)-2,4-decadienal]		zone of inhibition (M. restricta; [3]): > 40 mm

Compound	zone of inhibition at 0.5 % (M. restricta; [2]) [mm]	other results
CC/C=C/CC/C=C/C=O [(E,E)-2,6-nonadienal]		zone of inhibition (M. restricta; [3]): > 40 mm
CCCCCCC/C=C\C=O [(Z)-2-decenal]		zone of inhibition (M. restricta; [3]): > 40 mm
CC/C=C\CCOC(=O)C(C)C [(Z)-3-hexenyl isobutyrate]	7.7	
CCCC/C=C\CCO [(Z)-3-octen-1-ol]		zone of inhibition (M. restricta; [3]): 7.1 mm
CCCCC/C=C\CCC=O [(Z)-4-decenal]		zone of inhibition (M. restricta; [3]): 7.2 mm
CC/C=C\CCCCO [(Z)-5-octen-1-ol]		zone of inhibition (M. restricta; [3]): 7.3 mm
CC/C=C\CCCCC=O [(Z)-6-nonenal]	7.2	
CC/C(=C\C[C@H]1CC=C(C)C1(C)C)CO [(−)-(2E)-2-ethyl-4-[(1R)-2,2,3-trimethyl-3-cyclopenten-1-yl]-2-buten-1-ol]	7.6	
CC1(C)CCC[C@]2(C)[C@H]3CCO[C@]3(C)CC[C@@H]12 [(−)-(3aR,5aS,9aS,9bR)-3a,6,6,9a-tetramethyldodecahydronaphtho[2,1-b]furan]	7.7	
CC(C)=CCC[C@@H](C)CC#N [(−)-(R)-3,7-dimethyl-6-octenenitrile]	7.2	
CCCCCCO [Mix 1-hexanol, 1-hexanol]		zone of inhibition at 1 % [1]: 6.7 mm
CCCCC/C=C\C=C\C(=O)OCC [ethyl (2E,4Z)-2,4-decadienoate]	7.4	
CNc1ccccc1C(=O)OC [methyl 2-(methylamino)benzoate]	7.4	
CCCCCCCCC=O [nonanal]	7.3	
CCCCCCCC=O [octanal]	7.5	
(1RS,2RS)-2,4-dimethyl-3-cyclohexene-1-carbaldehyde + (1RS,2SR)-2,4-dimethyl-3-cyclohexene-1-carbaldehyde		Inhibition zone diameter (mm) on M. restricta (M. restricta; Table 20, 0.5% in DMSO, 4 days): 8.0 mm
(2R)-2-methyl-4-[(1R)-2,2,3-trimethyl-3-cyclopenten-1-yl]-4-pentenal + (2S)-2-methyl-4-[(1R)-2,2,3-trimethyl-3-cyclopenten-1-yl]-4-pentenal		Inhibition zone diameter (mm) on M. restricta (M. restricta; Table 20, 0.5% in DMSO, 4 days): 7.0 mm
(+)-(3S)-3-[(1R)-4-methyl-3-cyclohexen-1-yl]butanal + (+)-(3R)-3-[(1R)-4-methyl-3-cyclohexen-1-yl]butanal		Inhibition zone diameter (mm) on M. restricta (M. restricta; Table 20, 0.5% in DMSO, 4 days): 7.3 mm
(+/−)-(4Z)-4,8-dimethyl-4,9-decadienal + (+/−)-(4E)-4,8-dimethyl-4,9-decadienal		Inhibition zone diameter (mm) (M. restricta; Table 19, in DMSO (0.5%, 1% or 2%, not specified per value), M. restricta, 4 days): 7.3 mm
cis-4-(2-methyl-2-propanyl)cyclohexyl acetate + trans-4-(2-methyl-2-propanyl)cyclohexyl acetate		Inhibition zone diameter (mm) on M. restricta (M. restricta; Table 20, 0.5% in DMSO, 4 days): 7.2 mm
